From the Kinase Knowledgebase extract (Sharma et al. 2016)

What follows are compounds tested against EGFR (human) (UniProt P00533). Settings: a431.
EGFR (human), sequence (P00533 whole entry, looked up): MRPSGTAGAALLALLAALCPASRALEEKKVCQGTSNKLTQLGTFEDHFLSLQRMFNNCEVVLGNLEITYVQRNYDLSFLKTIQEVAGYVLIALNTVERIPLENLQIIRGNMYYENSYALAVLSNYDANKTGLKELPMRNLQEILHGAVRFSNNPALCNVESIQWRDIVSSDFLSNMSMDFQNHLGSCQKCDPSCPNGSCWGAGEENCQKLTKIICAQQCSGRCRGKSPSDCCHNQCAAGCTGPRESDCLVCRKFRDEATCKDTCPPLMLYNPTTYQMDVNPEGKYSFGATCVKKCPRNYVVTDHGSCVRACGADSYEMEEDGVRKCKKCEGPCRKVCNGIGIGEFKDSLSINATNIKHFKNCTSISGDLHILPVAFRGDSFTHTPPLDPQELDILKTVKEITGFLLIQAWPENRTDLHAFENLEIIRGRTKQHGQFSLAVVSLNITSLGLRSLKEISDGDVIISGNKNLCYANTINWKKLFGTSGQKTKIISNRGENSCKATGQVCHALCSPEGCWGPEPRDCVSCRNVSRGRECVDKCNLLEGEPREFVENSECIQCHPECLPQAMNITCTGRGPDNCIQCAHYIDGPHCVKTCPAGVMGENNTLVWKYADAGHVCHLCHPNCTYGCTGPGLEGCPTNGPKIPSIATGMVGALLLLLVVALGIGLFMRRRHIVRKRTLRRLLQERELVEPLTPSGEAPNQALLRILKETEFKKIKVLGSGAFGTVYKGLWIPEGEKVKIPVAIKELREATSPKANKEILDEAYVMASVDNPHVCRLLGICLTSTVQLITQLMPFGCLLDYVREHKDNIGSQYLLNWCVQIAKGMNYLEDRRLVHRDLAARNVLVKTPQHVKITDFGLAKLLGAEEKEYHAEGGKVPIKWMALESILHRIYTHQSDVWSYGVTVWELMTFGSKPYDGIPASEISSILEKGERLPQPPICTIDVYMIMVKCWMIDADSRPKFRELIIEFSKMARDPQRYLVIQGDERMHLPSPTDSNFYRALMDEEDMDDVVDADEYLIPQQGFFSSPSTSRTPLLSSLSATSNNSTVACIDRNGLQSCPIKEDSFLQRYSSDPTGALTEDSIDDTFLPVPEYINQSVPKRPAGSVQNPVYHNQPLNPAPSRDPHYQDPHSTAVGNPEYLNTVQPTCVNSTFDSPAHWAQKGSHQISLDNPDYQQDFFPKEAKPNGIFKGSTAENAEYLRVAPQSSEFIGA

Row | Compound | IC50 [nM]
1 | C=CC(=O)Nc1cccc(Nc2ncnc3cc(OC)c(OC4CCN(C(=O)C=C)CC4)cc23)c1 | 400
2 | C=CC(=O)N1CC[C@H](Oc2cc3c(Nc4cccc(Cl)c4F)ncnc3cc2OC)C1 | 531
3 | C=CC(=O)N1CCC(Oc2cc3c(Nc4ccc(C(C)C)cc4)ncnc3cc2OC)CC1 | 23
4 | COc1cc2ncnc(Nc3ccc(F)c(Cl)c3F)c2cc1O[C@H]1CCN(C(=O)C#CCN(C)C)C1 | 33
5 | C=CC(=O)N1CCC(Oc2cc3c(Nc4ccc(Cl)cc4O)ncnc3cc2OC)CC1 | 32
6 | C=CC(=O)N1CC[C@H](Oc2cc3c(Nc4ccc(F)c(Cl)c4F)ncnc3cc2OC)C[C@H]1C(=O)NCCCO | 20
7 | COc1cc2ncnc(Nc3ccc(F)c(Cl)c3F)c2cc1OC1CCN(C(=O)C=C(C)C)CC1 | 38
8 | C=CC(=O)NCCOc1cc2c(Nc3ccc(F)c(Cl)c3F)ncnc2cc1OC | 699
9 | C=CC(=O)N1CC[C@@H](Oc2cc3c(Nc4ccc(F)c(Cl)c4F)ncnc3cc2OC)C[C@@H]1C(=O)NCCS(C)(=O)=O | 2.4
10 | C=CC(=O)N1CCC(Oc2cc3c(Nc4ccccc4Cl)ncnc3cc2OC)CC1 | 65
11 | C=CC(=O)N1CC[C@@H](Oc2cc3c(Nc4ccc(F)c(Cl)c4F)ncnc3cc2OC)C[C@@H]1C(=O)O | 979
12 | C=CC(=O)N1CC[C@H](Oc2cc3c(Nc4ccc(F)c(Cl)c4F)ncnc3cc2OC)C[C@H]1C(=O)NCCC | 12
13 | COc1cc2ncnc(Nc3ccc(Cl)c(Cl)c3F)c2cc1OC1CCN(C(=O)/C=C/C(=O)O)CC1 | 516
14 | C=CC(=O)N1CCC(Oc2cc3c(Nc4cccc(SC)c4)ncnc3cc2OC)CC1 | 305
15 | C=CC(=O)N1CCC(Oc2cc3c(Nc4ccc(O)c(F)c4)ncnc3cc2OC)CC1 | 129
16 | COc1cc2ncnc(Nc3cccc(Cl)c3F)c2cc1OC1CCN(C(=O)/C=C/CN(C)C)CC1 | 76
17 | C=CC(=O)N1CCC(Oc2cc3c(Nc4cc(Cl)c(O)c(Cl)c4)ncnc3cc2OC)CC1 | 179
18 | C=CC(=O)N1CCC(Oc2cc3c(Nc4ccc(Cl)c(C#N)c4)ncnc3cc2OC)CC1 | 35
19 | COc1cc2ncnc(Nc3ccc(F)c(Cl)c3F)c2cc1OC1CN(C(=O)/C=C\CN(C)C)C1 | 15
20 | CN(C)C/C=C/C(=O)N1CC[C@H](Oc2ccc3ncnc(Nc4ccc(F)c(Cl)c4F)c3c2)C1 | 25

Row | Compound | IC50 [nM]
21 | C=C(NC(C)=O)C(=O)N1CCC(Oc2cc3c(Nc4ccc(Cl)c(Cl)c4F)ncnc3cc2OC)CC1 | 50
22 | CNC(=O)/C=C/C(=O)N1CC(Oc2cc3c(Nc4ccc(F)c(Cl)c4F)ncnc3cc2OC)C1 | 41
23 | COc1cc2ncnc(Nc3ccc(F)c(Cl)c3F)c2cc1O[C@H]1CCN(C(=O)C#CCCN2CCN(C)CC2)C1 | 53
24 | COc1cc2ncnc(Nc3ccc(Cl)c(Cl)c3F)c2cc1OC1CCN(C(=O)/C=C\C(=O)O)CC1 | 322
25 | C=C(C)C(=O)N1CC(Oc2cc3c(Nc4ccc(F)c(Cl)c4F)ncnc3cc2OC)C1 | 29
26 | COc1cc2ncnc(Nc3ccc(F)c(Cl)c3F)c2cc1OC1CN(C(=O)/C=C/CN(C)C)C1 | 36
27 | C=CC(=O)N1CC[C@H](Oc2ccc3ncnc(Nc4ccc(OCc5cccc(F)c5)c(Cl)c4)c3c2)C1 | 15
28 | COc1cc2ncnc(Nc3ccc(Cl)c(Cl)c3F)c2cc1OC1CCN(C(=O)/C=C\Cl)CC1 | 14
29 | C=CC(=O)N1CC[C@H](Oc2cc3c(Nc4ccc(Br)cc4F)ncnc3cc2OC)C1 | 15
30 | COc1cc2ncnc(Nc3ccc(F)c(Cl)c3F)c2cc1OC1CCN(C(=O)/C=C/C(=O)NO)CC1 | 187
31 | C/C=C/C(=O)N1CC[C@H](Oc2cc3c(Nc4ccc(F)c(Cl)c4F)ncnc3cc2OC)C1 | 85
32 | COc1cc2ncnc(Nc3ccc(Cl)c(Cl)c3F)c2cc1OC1CCN(C(=O)/C=C/Cl)CC1 | 39
33 | C=CC(=O)N1CCC(Oc2cc3c(Nc4cccc(N(C)C)c4)ncnc3cc2OC)CC1 | 142
34 | C#Cc1cccc(Nc2ncnc3cc(OC)c(OC4CCN(C(=O)C=C)CC4)cc23)c1 | 52
35 | CC#CC(=O)N1CCC(Oc2cc3c(Nc4ccc(F)c(Cl)c4F)ncnc3cc2OC)CC1 | 190
36 | C=CC(=O)N1CC[C@H](Oc2cc3c(Nc4ccc(F)c(Cl)c4F)ncnc3cc2OC)C[C@H]1C(=O)OC | 5
37 | C=CC(=O)N1CC(Oc2cc3c(Nc4cccc(C#N)c4)ncnc3cc2OC)C1 | 17
38 | C=CC(=O)N1CCC(Oc2cc3c(Nc4cccc(C(F)(F)F)c4)ncnc3cc2OC)CC1 | 58
39 | C=CC(=O)N1CCC(Oc2cc3c(Nc4ccc(C)c(C)c4)ncnc3cc2OC)CC1 | 19

The next lines start with the values.

Row | IC50 [nM] | Compound
40 | 10 | C=CC(=O)N1CC[C@H](Oc2cc3c(Nc4ccc(F)c(Cl)c4F)ncnc3cc2OC)C[C@H]1C(=O)NO
41 | 1.1 | C=CC(=O)N1CC[C@@H](Oc2cc3c(Nc4ccc(Br)cc4F)ncnc3cc2OC)C[C@@H]1C(N)=O
42 | 4 | COc1cc2ncnc(Nc3ccc(F)c(Cl)c3F)c2cc1O[C@H]1CCN(C(=O)/C=C/CN(C)C)C1
43 | 8 | C=CC(=O)N1CCC(Oc2cc3c(Nc4ccc(F)c(C)c4)ncnc3cc2OC)CC1
44 | 9 | C=CC(=O)N1CCC(Oc2cc3c(Nc4cccc(Cl)c4C)ncnc3cc2OC)CC1
45 | 6 | COc1cc2ncnc(Nc3ccc(F)c(Cl)c3F)c2cc1OC1CCN(C(=O)/C=C\CN(C)C)CC1
46 | 11 | C=CC(=O)N1CCC(Oc2cc3c(Nc4cccc([N+](=O)[O-])c4)ncnc3cc2OC)CC1
47 | 8 | COc1cc2ncnc(Nc3cccc(Cl)c3F)c2cc1O[C@H]1CCN(C(=O)/C=C/CN(C)C)C1
48 | 9.1 | C=C(CN1CCCCC1)C(=O)N1CC(Oc2cc3c(Nc4ccc(F)c(Cl)c4F)ncnc3cc2OC)C1
49 | 4 | C=CC(=O)N1CCC(Oc2cc3c(Nc4ccc(F)c(Cl)c4F)ncnc3cc2OCCCN2CCOCC2)CC1
50 | 8 | C=CC(=O)N1CCC(Oc2cc3c(Nc4ccc(F)c(C#N)c4)ncnc3cc2OC)CC1
51 | 3.7 | C=CC(=O)N1CCC(Oc2cc3c(Nc4cccc(C#N)c4)ncnc3cc2OC)CC1
52 | 1 | COC(=O)/C=C\C(=O)N1CC(Oc2cc3c(Nc4cccc(Cl)c4F)ncnc3cc2OC)C1
53 | 7.5 | C=CC(=O)N1CC[C@H](Oc2cc3c(Nc4ccc(F)c(Cl)c4F)ncnc3cc2OC)C[C@H]1C(=O)NC(C)C
54 | 1.7 | C=CC(=O)N1CC[C@@H](Oc2cc3c(Nc4ccc(F)c(Cl)c4F)ncnc3cc2OC)C[C@@H]1C(=O)NO
55 | 7 | C=CC(=O)N1CCC(Oc2cc3c(Nc4ccc(Br)c(F)c4)ncnc3cc2OC)CC1
56 | 4 | C=C(CN(C)C)C(=O)N1CCC(Oc2cc3c(Nc4ccc(Cl)c(Cl)c4F)ncnc3cc2OC)CC1
57 | 2.4 | C=C(CN1CCCCC1)C(=O)N1CC(Oc2cc3c(Nc4cccc(Cl)c4F)ncnc3cc2OC)C1
58 | 6 | C=CC(=O)N1CCCC(Oc2cc3c(Nc4ccc(F)c(Cl)c4F)ncnc3cc2OC)C1 (centres undefined)
59 | 1 | C=C(CN1CCN(C)CC1)C(=O)N1CC(Oc2cc3c(Nc4ccc(F)c(Cl)c4F)ncnc3cc2OC)C1
60 | 10 | C=C(CN1CCOCC1)C(=O)N1CCC(Oc2cc3c(Nc4ccc(F)c(Cl)c4F)ncnc3cc2OC)CC1
61 | 4.6 | C=CC(=O)N1CCC(Oc2cc3c(Nc4ccc(Cl)cc4)ncnc3cc2OC)CC1
62 | 8 | C=CC(=O)N1CC[C@H](Oc2cc3c(Nc4ccc(F)c(Cl)c4F)ncnc3cc2OC)C[C@H]1C(=O)NCC
63 | 8.3 | C=CC(=O)N1CC[C@H](Oc2cc3c(Nc4ccc(F)c(Cl)c4F)ncnc3cc2OC)C[C@H]1C(=O)NCCN1CCOCC1
64 | 2.7 | C=C(CN(C)C)C(=O)N1CCC(Oc2cc3c(Nc4ccc(F)c(Cl)c4F)ncnc3cc2OC)CC1
